Consider eleven compounds from US20250313553A1, “ANNULATED 2-AMINO-3-CYANO THIOPHENES AND DERIVATIVES FOR THE TREATMENT OF CANCER” (Boehringer Ingelheim Int'l GmbH Corp., priority 2021, published 2025).

One data set can be described thus: Caco-2 assay. The class given is in vitro ADME. The conditions noted are these: human; for Papp A→B at 90 min, 10 μM: Caco-2, pH 7.4, apical to basolateral, read-out: Caco PappAB; for efflux ratio at 90 min, 10 μM: Caco-2, pH 7.4, efflux ratio PappBA/PappAB, read-out: Caco ER. On the procedure: The assay provides information on the potential of a compound to pass the cell membrane, on the extent of oral absorption as well as on whether the compound is actively transported by uptake and/or efflux transporters. Permeability measurements across polarized, confluent Caco-2 cell monolayers grown on permeable filter supports (Corning, catalog #3391) are used. […] The receiver and donor compartments contain 0.25% bovine serum albumine (BSA) in assay buffer. […] After a pre-incubation of 25-30 min at 37° C., at predefined time points (0, 30, 60 and 90 min), samples were taken from the receiver and donor compartment, respectively. Concentrations of test compounds in samples were measured by HPLC/MS/MS, samples from the donor compartment were diluted 1:50 (v:v) with assay buffer, samples from receiver compartment were measured without dilution.
Apparent permeabilities in a-b (PappAB) and b-a (PappBA) directions are calculated according to the formula:
[formula] • Vrec [mL]: buffer volume in receiver compartment • Cdon [μmol/mL]: concentration of test compound in donor compartment at t=0 • ΔCrec: difference between concentrations of test compound in receiver compartment at start and end of incubation time • Δt: Incubation time • Vrec·ΔCrec/Δt [μmol/min]: Amount of compound transferred to receiver compartment per time • A [cm^2]: filter surface
Caco-2 efflux ratios (ER) are calculated as the ratio of PappBA/PappAB.

The next data set deals with T1, KRAS (G12V) and SOS1 (Homo sapiens, UniProt P01116, C118S/G12V).
T1 construct: KRAS (G12V) 1-169, N-terminal 6His-tag for purification; 6His (N, cleaved yes); TEV cleavage site
T1 sequence (P01116 1-169 isoform P01116-2 G12V/C118S): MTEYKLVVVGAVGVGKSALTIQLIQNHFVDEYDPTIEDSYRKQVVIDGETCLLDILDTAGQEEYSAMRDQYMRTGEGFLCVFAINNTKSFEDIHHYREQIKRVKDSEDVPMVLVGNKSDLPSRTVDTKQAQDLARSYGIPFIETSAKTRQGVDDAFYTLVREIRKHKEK
As to the kind of experiment: KRAS::SOS1 AlphaScreen binding assay, KRAS G12V. On the procedure: (§1) Low IC50 values in this assay setting are indicative of strong inhibition of protein-protein interaction between SOS1 and KRAS:
(§2) These assays measure the inhibitory effect of compounds on KRAS mutant protein-protein interactions using the Alpha Screen technology by Perkin Elmer.
(§3) For the chosen highest assay concentration of 100 μM, 150 nL of compound solution are transferred from a 10 mM DMSO compound stock solution. A series of eleven fivefold dilutions per compound are transferred to the assay plate, compound dilutions are tested in duplicates. DMSO are added as backfill to a total volume of 150 nL.
(§4) The assays run on a fully automated robotic system in a darkened room below 100 Lux. To 150 nl of compound dilution 10 μl of a mix including KRAS mutant protein, SOS1 (final assay concentrations see above) and GDP nucleotide (Sigma G7127; final assay concentration 10 μM) in assay buffer (1×PBS, 0.1% BSA, 0.05% Tween 20) are added into columns 1-24. After 30 minutes incubation time 5 μl of Alpha Screen bead mix in assay buffer are added into columns 1-23.
(§5) Plates are kept at room temperature in a darkened incubator. After an additional 60 minutes incubation time the signal is measured in a PerkinElmer Envision HTS Multilabel Reader using the AlphaScreen specs from PerkinElmer.
(§6) IC50 values are calculated and analyzed with Boehringer Ingelheim's MEGALAB IC50 application using a 4 parametric logistic model.

Data set [1] is described as follows: Plasma protein binding assay (PPB), equilibrium dialysis. The class given is in vitro ADME. The settings on record: bovine, 10% FCS in PBS, read-out: PPB 10% FCS (% fu). On the procedure:
Binding of test compounds to plasma was determined using equilibrium dialysis (ED) and quantitative mass spectrometry interfaced with liquid chromatography (LC-MS). In brief, ED was performed with dialysis devices consisting of two chambers separated by a semipermeable membrane with a molecular weight cut-off of 5-10 kg/mol. One chamber was filled with 10% FCS in PBS containing 1-10 μmol/L test compound and the other chamber was filled with phosphate-buffer saline (PBS) with or without dextran. The dialysis chamber was incubated for 3-5 hours at 37° C. After incubation, protein was precipitated from aliquots of each chamber and the concentration of test compound in the supernatant of the plasma-containing compartment (cserum) and of the buffer-containing compartment (cbuffer) was determined by LC-MS. The fraction of unbound test compound (not bound to plasma) (fu) was calculated according to the following equation: […]

In a further data set the test system is SK-CO-1 cells. As to the kind of experiment: SK-CO-1 CTG proliferation assay (120 h). The format is cell-based. The settings on record: Homo sapiens, CRC, G12V. On the procedure: SK-CO-1 cells (ATCC HTB-39) are dispensed into 384-well plates, flat and clear bottom (Greiner, PNr. 781091) at a density of 500 cells per well in 60 μL EMEM (Sigma M5650)+10% Fetal Calf Serum (HyClone, PNr.: SH30084.03) and incubated at 37° C. in a CO2 incubator overnight. The next day, compounds (10 mM stock in DMSO) are added with the ECHO acoustic liquid handler system (Beckman Coulter), including DMSO controls. Plates are incubated for 120 h, and cell viability is measured using CellTiter-Glo luminescent cell viability reagent (Promega product code G7570). Viability (stated as percent of control) is defined as relative luminescence units RLU of each well divided by the RLU of cells in DMSO controls. IC50 values are determined from viability measurements by non-linear regression using a four-parameter model.

A further data set concerns the target T2, KRAS (G12C) and SOS1 (Homo sapiens, UniProt P01116, C118S/C51S/C80L/G12C).
T2 construct: KRAS (G12C) 1-169, N-terminal 6His-tag for purification; 6His (N, cleaved yes)
As to the kind of experiment: KRAS::SOS1 AlphaScreen binding assay, KRAS G12C. On the procedure: as §1, §2, §3, §4, §5, §6

The next data set deals with T3, KRAS (G12D) and SOS1 (Homo sapiens, UniProt P01116, G12D).
T3 construct: KRAS (G12D) 1-169, N-terminal 6His-tag; 6His (N); purchased Xtal BioStructures, Inc. (KRAS G12D); Viva Biotech Ltd (SOS1)
T3 sequence (P01116 1-169 isoform P01116-2 G12D): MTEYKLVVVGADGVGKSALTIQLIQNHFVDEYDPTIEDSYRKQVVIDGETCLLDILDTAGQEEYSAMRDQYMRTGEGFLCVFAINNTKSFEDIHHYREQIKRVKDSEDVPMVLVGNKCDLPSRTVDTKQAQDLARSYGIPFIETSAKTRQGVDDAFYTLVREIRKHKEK
As to the kind of experiment: KRAS::SOS1 AlphaScreen binding assay, KRAS G12D. The protocol: as §1, §2, §3, §4, §5, §6

The nature of data set [2]: Solubility measurement (DMSO solution precipitation method). The format is physicochemical. The conditions noted are these: aqueous buffer, kinetic from dmso stock. The protocol: The DMSO solution is diluted with an aqueous medium (McIlvaine buffer with pH=4.5 or 6.8) to a final concentration of 250 μM. After 24 h of shaking at ambient temperature a potentially formed precipitate is removed by filtration. The concentration of the test compound in the filtrate is determined by LC-UV methods by calibrating the signal to the signal of a reference solution with complete dissolution of the test compound in acetonitrile/water (1:1) with known concentration.

[3] abbreviates: McIlvaine buffer pH 4.5, 24 h, read-out: solubility pH 4.5.
Setting [4] is: McIlvaine buffer pH 6.8, 24 h, read-out: solubility pH 6.8.

Converted amounts (≈) assume the structure as drawn. Where two headings read alike, the source gives them in different places.

T2 sequence (P01116 1-169 isoform P01116-2 G12C/C51S/C80L/C118S): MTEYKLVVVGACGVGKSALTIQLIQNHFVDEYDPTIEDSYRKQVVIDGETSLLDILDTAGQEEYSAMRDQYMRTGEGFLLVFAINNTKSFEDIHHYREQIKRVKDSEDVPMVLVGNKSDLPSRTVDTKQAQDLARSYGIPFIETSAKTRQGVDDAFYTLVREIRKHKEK

Turning to `C[C@H]1CN(C)CCN1c1cccc(-c2noc([C@@]3(C)CCCc4sc(N)c(C#N)c43)n2)n1` [Example V-1], the Papp A→B at 90 min, 10 μM in the data set “Caco-2 assay” worked out at 25.6 ×10⁻⁶ cm/s. The efflux ratio at 90 min, 10 μM in the data set “Caco-2 assay” was 0.7. In addition, the IC50 on KRAS (G12V) and SOS1 is 52 nM; in the data set on SK-CO-1 cells, 4.8 µM; on KRAS (G12C) and SOS1, 31 nM; at KRAS (G12D) and SOS1 it was 26 nM. In addition, the fraction unbound in data set [1] was 0.21. Besides, the solubility at 24 h was greater than 110 µg/mL in data set [2] (setting [3]) and 76 µg/mL (≈ 169 µM) in data set [2] (setting [4]).

As for `COCCCN1CCCN(c2nccc(-c3noc([C@@]4(C)CCCc5sc(N)c(C#N)c54)n3)n2)[C@@H](C)C1` [Example V-2], the Papp A→B at 90 min, 10 μM in “Caco-2 assay” is 26.4 ×10⁻⁶ cm/s. In addition, the efflux ratio at 90 min, 10 μM in the data set “Caco-2 assay” is 1.5. The IC50 on KRAS (G12V) and SOS1 is 6 nM; at KRAS (G12C) and SOS1, 6 nM; on KRAS (G12D) and SOS1, 3 nM. The solubility at 24 h in data set [2] (setting [3]) is greater than 130 µg/mL; in data set [2] (setting [4]), 100 µg/mL (≈ 191 µM).

As for `C[C@H]1CNCCN1c1nccc(-c2noc([C@@]3(C)CCCc4sc(N)c(C#N)c43)n2)n1` [Example V-4], the Papp A→B at 90 min, 10 μM in “Caco-2 assay” worked out at 5 ×10⁻⁶ cm/s. Further, the efflux ratio at 90 min, 10 μM in “Caco-2 assay” was found to be 9.8. In addition, the IC50 stood at 23 nM at KRAS (G12C) and SOS1; 15 nM on KRAS (G12D) and SOS1. The solubility at 24 h in data set [2] (setting [3]) is greater than 97 µg/mL; in data set [2] (setting [4]), greater than 91 µg/mL.

On to `C[C@H]1CN(C)CCCN1c1nccc(-c2noc([C@@]3(C)CCCc4sc(N)c(C#N)c43)n2)n1` [Example V-5], for which the Papp A→B at 90 min, 10 μM in the data set “Caco-2 assay” worked out at 21.4 ×10⁻⁶ cm/s. For the same compound, the efflux ratio at 90 min, 10 μM in the data set “Caco-2 assay” came out at 1.7. Besides, the IC50 at KRAS (G12C) and SOS1 was found to be 8 nM; on KRAS (G12D) and SOS1, 7 nM. Moreover, the solubility at 24 h was greater than 100 µg/mL in data set [2] (setting [3]) and 92 µg/mL (≈ 198 µM) in data set [2] (setting [4]).

`C[C@H]1CNCCCN1c1nccc(-c2noc([C@@]3(C)CCCc4sc(N)c(C#N)c43)n2)n1` [Example V-6]: in “Caco-2 assay”, the Papp A→B at 90 min, 10 μM came to 1.2 ×10⁻⁶ cm/s. The efflux ratio at 90 min, 10 μM in “Caco-2 assay” is 19. The IC50 at KRAS (G12C) and SOS1 was found to be 15 nM; on KRAS (G12D) and SOS1, 12 nM. Also, the solubility at 24 h in data set [2] (setting [3]) stood at 88 µg/mL (≈ 195 µM); in data set [2] (setting [4]) it was 85 µg/mL (≈ 189 µM).

On to `C[C@H]1CN(C)CCN1c1nccc(-c2noc([C@@]3(C)CCCc4sc(N)c(C#N)c43)n2)n1` [Example V-7], for which, in “Caco-2 assay”, the Papp A→B at 90 min, 10 μM amounted to 32.2 ×10⁻⁶ cm/s and the efflux ratio at 90 min, 10 μM turned out to be 0.7. For the same compound, the IC50 on KRAS (G12C) and SOS1 was 22 nM. Moreover, the IC50 on KRAS (G12D) and SOS1 is 16 nM.

As to `C[C@H](Oc1cccc(-c2noc([C@@]3(C)CCCc4sc(N)c(C#N)c43)n2)n1)[C@@H]1CCCN1C` [Example V-8], the Papp A→B at 90 min, 10 μM in the data set “Caco-2 assay” was 20.9 ×10⁻⁶ cm/s. Also, in the data set “Caco-2 assay”, the efflux ratio at 90 min, 10 μM was determined as 1.3. In addition, the IC50 turned out to be 9 nM at KRAS (G12V) and SOS1; 6.65 µM with SK-CO-1 cells; 9 nM on KRAS (G12C) and SOS1; 7 nM at KRAS (G12D) and SOS1. The fraction unbound in data set [1] turned out to be 0.51. The figures for the solubility at 24 h in data set [2] (setting [3]) and in data set [2] (setting [4]) were greater than 96 µg/mL and greater than 95 µg/mL, respectively.

Take `CC(C)N1CCCN(c2nccc(-c3noc([C@@]4(C)CCCc5sc(N)c(C#N)c54)n3)n2)[C@@H](C)C1` [Example V-9]: the Papp A→B at 90 min, 10 μM in “Caco-2 assay” stood at 27 ×10⁻⁶ cm/s. Besides, in the data set “Caco-2 assay”, the efflux ratio at 90 min, 10 μM was determined as 0.9. Further, the IC50 at KRAS (G12C) and SOS1 is 5 nM; on KRAS (G12D) and SOS1, 5 nM. The solubility at 24 h in data set [2] (setting [3]) and in data set [2] (setting [4]) was greater than 110 µg/mL each time.

Take `C[C@H](Oc1nccc(-c2noc([C@@]3(C)CCCc4sc(N)c(C#N)c43)n2)n1)[C@@H]1CCCN1C` [Example V-10]: in “Caco-2 assay”, the Papp A→B at 90 min, 10 μM is 11.3 ×10⁻⁶ cm/s. Also, the efflux ratio at 90 min, 10 μM in “Caco-2 assay” is 3.2. Besides, the IC50 on KRAS (G12C) and SOS1 amounted to 7 nM; at KRAS (G12D) and SOS1, 5 nM. Moreover, the solubility at 24 h in data set [2] (setting [3]) and in data set [2] (setting [4]) was greater than 110 µg/mL each time.

Turning to `C[C@H](Oc1ccnc(-c2noc([C@@]3(C)CCCc4sc(N)c(C#N)c43)n2)n1)[C@@H]1CCCN1C` [Example V-11], the Papp A→B at 90 min, 10 μM in “Caco-2 assay” stood at 13 ×10⁻⁶ cm/s. Further, in data set [1], the fraction unbound turned out to be 0.61. The same compound displayed an IC50 in the data set on SK-CO-1 cells of 0.737 µM. The solubility at 24 h in data set [2] (setting [3]) and in data set [2] (setting [4]) was greater than 116 µg/mL in each case.

Turning to `C[C@H]1CN(C)CCN1c1nccc(-c2cc([C@@]3(C)CCCc4sc(N)c(C#N)c43)on2)n1` [Example V-27], the Papp A→B at 90 min, 10 μM in “Caco-2 assay” was found to be 14 ×10⁻⁶ cm/s. Further, the efflux ratio at 90 min, 10 μM in “Caco-2 assay” worked out at 0.5. The IC50 at KRAS (G12V) and SOS1 turned out to be 18 nM; at KRAS (G12C) and SOS1 it was 24 nM; on KRAS (G12D) and SOS1, 8 nM. Besides, the solubility at 24 h in data set [2] (setting [3]) was greater than 93 µg/mL; in data set [2] (setting [4]), 18 µg/mL (≈ 40 µM).
